Columns and labels:
BRD3 = BRD3 (Homo sapiens (Human), UniProt Q15059); test: TR-FRET in-vitro binding assay for BRD3; details: 45 nM His-Brd3(20-477), acetyl-histone H4 (AcK 5, 8, 12, 16) peptide
How it was run: (§1)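 Eight-point compound dilutions, delivered in 90% DMSO, were tested in a 13.55 μL final reaction. Reactions ran 35 minutes at 30° C before TR-FRET measurement.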

THP-1 = test: Cell growth inhibition assay (CellTiter-Glo), THP-1; format: cell-based, human; details: THP-1 cells, 4 days; for GI50: Homo sapiens, 96 h, half-maximal growth inhibition; for THP-1 TGI: total growth inhibition
How it was run: (§2)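 Proliferation and viability are quantified by CellTiter-Glo after four days of incubation with serially diluted compound (maximum 10 μM). Four-parameter curve fitting gives IC50 and TGI.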

MV-4-11 = test: Cell growth inhibition assay (CellTiter-Glo), MV-4-11; format: cell-based, human; details: MV-4-11 cells, 4 days; for GI50: Homo sapiens, MV4-11, 96 h, half-maximal growth inhibition; for MV-4-11 TGI: total growth inhibition
How it was run: as §2

CREBBP = CREBBP (Homo sapiens (Human), UniProt Q92793); test: AlphaScreen in-vitro binding assay for CREBBP; details: 324 nM His-CREBBP (1081-1197), acetyl-histone H4 (AcK 5, 8, 12) peptide
How it was run: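 IC50 values were derived by non-linear regression of percent inhibition across 8 compound concentrations. Protein was His-tagged CREBBP bromodomain (1081-1197), peptide acetyl-histone H4 (AcK 5, 8, 12), in HEPES pH 7.5 buffer. Read-out was AlphaScreen with Ni-chelate acceptor and streptavidin donor beads, 35 min at 30° C then 60 min at RT.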

BRD4 = BRD4 (Homo sapiens (Human), UniProt O60885); test: TR-FRET in-vitro binding assay for BRD4; details: 45 nM His-Brd4(44-477), acetyl-histone H4 (AcK 5, 8, 12, 16) peptide
How it was run: as §1

BRD2 = BRD2 (Homo sapiens (Human), UniProt P25440); test: TR-FRET in-vitro binding assay for BRD2; details: 45 nM His-Brd2(60-472), acetyl-histone H4 (AcK 5, 8, 12, 16) peptide
How it was run: as §1

K-562 = test: Cell growth inhibition assay (CellTiter-Glo), K-562; format: cell-based, human; details: K-562 cells, 4 days; for GI50: Homo sapiens, K562, 96 h, half-maximal growth inhibition; for K-562 TGI: total growth inhibition
How it was run: as §2

Chain of BRD3 (Q15059 20-477): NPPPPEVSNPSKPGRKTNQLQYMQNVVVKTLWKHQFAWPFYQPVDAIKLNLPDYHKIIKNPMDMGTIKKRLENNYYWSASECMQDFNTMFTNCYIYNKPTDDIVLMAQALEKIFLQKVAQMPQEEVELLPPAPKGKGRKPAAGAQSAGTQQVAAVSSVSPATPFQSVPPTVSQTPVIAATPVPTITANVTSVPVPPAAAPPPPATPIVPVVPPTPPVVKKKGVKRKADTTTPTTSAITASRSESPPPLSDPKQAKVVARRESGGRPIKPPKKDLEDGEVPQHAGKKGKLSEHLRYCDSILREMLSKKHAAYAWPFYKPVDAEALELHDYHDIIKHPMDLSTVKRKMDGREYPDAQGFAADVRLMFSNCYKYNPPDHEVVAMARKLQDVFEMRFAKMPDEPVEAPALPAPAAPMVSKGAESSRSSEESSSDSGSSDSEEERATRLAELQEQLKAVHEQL
Chain of CREBBP (Q92793 1081-1197): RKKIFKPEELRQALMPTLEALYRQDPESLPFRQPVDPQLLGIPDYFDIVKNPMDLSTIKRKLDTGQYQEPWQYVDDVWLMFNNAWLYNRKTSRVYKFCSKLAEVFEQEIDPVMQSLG
Chain of BRD2 (P25440 60-472): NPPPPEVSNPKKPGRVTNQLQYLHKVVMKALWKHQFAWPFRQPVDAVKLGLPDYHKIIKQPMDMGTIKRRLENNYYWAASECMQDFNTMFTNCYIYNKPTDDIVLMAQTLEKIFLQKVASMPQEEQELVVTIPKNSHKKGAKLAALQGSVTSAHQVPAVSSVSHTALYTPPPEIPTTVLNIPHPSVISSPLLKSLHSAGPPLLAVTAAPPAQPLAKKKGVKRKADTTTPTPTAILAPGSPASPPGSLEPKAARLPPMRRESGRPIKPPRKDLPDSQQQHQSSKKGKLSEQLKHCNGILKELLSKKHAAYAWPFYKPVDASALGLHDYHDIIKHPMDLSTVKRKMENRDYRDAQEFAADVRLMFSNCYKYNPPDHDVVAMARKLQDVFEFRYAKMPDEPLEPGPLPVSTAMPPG

| Compound | IC50 (BRD3) [µM] | GI50 (THP-1) [µM] | THP-1 TGI (THP-1) [µM] | GI50 (MV-4-11) [µM] | MV-4-11 TGI (MV-4-11) [µM] | IC50 (CREBBP) [µM] | IC50 (BRD4) [µM] | IC50 (BRD2) [µM] | GI50 (K-562) [µM] | K-562 TGI (K-562) [µM] |
| --- | --- | --- | --- | --- | --- | --- | --- | --- | --- | --- |
| COc1ncc(-c2cc3c(n2C)C(c2ccc(Cl)cc2)N(c2cc(Cl)c(=O)n(C)c2)C3=O)cn1 (stereo not drawn) [Example 40, 5-(5-chloro-1-methyl-6-oxo-1,6-dihydropyridin-3-yl)-6-(4-chlorophenyl)-2-(2-methoxypyrimidin-5-yl)-1-methyl-5,6-dihydropyrrolo[3,4-b]pyrrol-4(1H)-one] | 0.054 | 0.0919 | 0.137 | 0.0839 | 0.127 | 0.365 | 0.078 | 0.0725 | 0.326 | >10 |
| Cn1c(-c2ccn(C)c(=O)c2)cc2c1C(c1ccc(Cl)cc1)N(c1cc(Cl)c(=O)n(C)c1)C2=O (stereo not drawn) [Example 41, 5-(5-chloro-1-methyl-6-oxo-1,6-dihydropyridin-3-yl)-6-(4-chlorophenyl)-1-methyl-2-(1-methyl-2-oxo-1,2-dihydropyridin-4-yl)-5,6-dihydropyrrolo[3,4-b]pyrrol-4(1H)-one] | 0.0655 | 0.167 | 0.307 | 0.0787 | 0.128 | 0.535 | 0.085 | 0.083 | 0.517 | >10 |
| Cn1c(-c2cccn(C)c2=O)cc2c1C(c1ccc(Cl)cc1)N(c1cc(Cl)c(=O)n(C)c1)C2=O (stereo not drawn) [Example 43, 5-(5-chloro-1-methyl-6-oxo-1,6-dihydropyridin-3-yl)-6-(4-chlorophenyl)-1-methyl-2-(1-methyl-2-oxo-1,2-dihydropyridin-3-yl)-5,6-dihydropyrrolo[3,4-b]pyrrol-4(1H)-one] | 0.077 | 0.276 | 0.492 | 0.183 | 0.31 | 0.69 | 0.12 | 0.09 | 0.934 | >10 |
| Cn1c(-c2cccc(=O)n2C)cc2c1C(c1ccc(Cl)cc1)N(c1cc(Cl)c(=O)n(C)c1)C2=O (stereo not drawn) [Example 44, 5-(5-chloro-1-methyl-6-oxo-1,6-dihydropyridin-3-yl)-6-(4-chlorophenyl)-1-methyl-2-(1-methyl-6-oxo-1,6-dihydropyridin-2-yl)-5,6-dihydropyrrolo[3,4-b]pyrrol-4(1H)-one] | 0.041 | 1.42 | 2.7 | 0.264 | 0.391 | 0.31 | 0.066 | 0.054 | 2.59 | >10 |
| Cc1cc(N2C(=O)c3cc(-c4ccc(=O)n(C)c4)n(C)c3C2c2ccc(Cl)cc2)cn(C)c1=O (stereo not drawn) [Example 46, 6-(4-chlorophenyl)-5-(1,5-dimethyl-6-oxo-1,6-dihydropyridin-3-yl)-1-methyl-2-(1-methyl-6-oxo-1,6-dihydropyridin-3-yl)-5,6-dihydropyrrolo[3,4-b]pyrrol-4(1H)-one] | 0.016 | 0.525 | 1.07 | 0.165 | 0.292 | 0.28 | 0.014 | 0.019 | 1.6 | >10 |
| Cc1cc(N2C(=O)c3cc(-c4cccn(C)c4=O)n(C)c3C2c2ccc(Cl)cc2)cn(C)c1=O (stereo not drawn) [Example 47, 6-(4-chlorophenyl)-5-(1,5-dimethyl-6-oxo-1,6-dihydropyridin-3-yl)-1-methyl-2-(1-methyl-2-oxo-1,2-dihydropyridin-3-yl)-5,6-dihydropyrrolo[3,4-b]pyrrol-4(1H)-one] | 0.082 | 0.195 | 0.351 | 0.0984 | 0.156 | 0.69 | 0.14 | 0.11 | 0.698 | >10 |

From patent US9550796B2, “Pyrrolopyrrolone derivatives and their use as BET inhibitors” (NOVARTIS AG, priority 2013, dated 2017)
